From ChEMBL document CHEMBL5649169 (ChemMedChem, 2018)

Tests used:
Ephrin type-A receptor 7 = Ephrin type-A receptor 7 (Homo sapiens, UniProt Q15375)
[1] = molecular target: Actin-like protein 6A (Homo sapiens) (UniProt O96019)
[2] = molecular target: 5-azacytidine-induced protein 2 (Homo sapiens) (UniProt Q9H6S1)
[3] = molecular target: G2/mitotic-specific cyclin-B2 (Homo sapiens) (UniProt O95067)
[4] = molecular target: Ceroid-lipofuscinosis neuronal protein 6 (Homo sapiens) (UniProt Q9NWW5)
[5] = molecular target: dCTP pyrophosphatase 1 (Homo sapiens) (UniProt Q9H773)
[6] = molecular target: Discoidin domain-containing receptor 2 (Homo sapiens) (UniProt Q16832)
[7] = molecular target: Deoxyribose-phosphate aldolase (Homo sapiens) (UniProt Q9Y315)
[8] = molecular target: Translation initiation factor eIF2B subunit delta (Homo sapiens) (UniProt Q9UI10)
[9] = molecular target: Protein FAM83E (Homo sapiens) (UniProt Q2M2I3)
[10] = molecular target: Holocytochrome c-type synthase (Homo sapiens) (UniProt P53701)
[11] = molecular target: Tyrosine-protein kinase HCK (Homo sapiens) (UniProt P08631)
[12] = molecular target: Heterogeneous nuclear ribonucleoprotein H (Homo sapiens) (UniProt P31943)
[13] = molecular target: Peroxisomal multifunctional enzyme type 2 (Homo sapiens) (UniProt P51659)
[14] = molecular target: Endoplasmin (Homo sapiens) (UniProt P14625)
[15] = molecular target: Serine/threonine-protein kinase ICK (Homo sapiens) (UniProt Q9UPZ9)
[16] = molecular target: Leucine-rich PPR motif-containing protein, mitochondrial (Homo sapiens) (UniProt P42704)
[17] = molecular target: Leucine-rich repeat flightless-interacting protein 1 (Homo sapiens) (UniProt Q32MZ4)
[18] = molecular target: Mitogen-activated protein kinase 7 (Homo sapiens) (UniProt Q13164)
[19] = molecular target: Misshapen-like kinase 1 (Homo sapiens) (UniProt Q8N4C8)
Malectin (Homo sapiens) = Malectin (Homo sapiens) (UniProt Q14165)
[20] = molecular target: NADH dehydrogenase [ubiquinone] 1 beta subcomplex subunit 10 (Homo sapiens) (UniProt O96000)
[21] = molecular target: Phosphoenolpyruvate carboxykinase [GTP], mitochondrial (Homo sapiens) (UniProt Q16822)
[22] = molecular target: Prohibitin-2 (Homo sapiens) (UniProt Q99623)
[23] = molecular target: Phosphorylase b kinase gamma catalytic chain, liver/testis isoform (Homo sapiens) (UniProt P15735)
[24] = molecular target: Phosphatidylinositol 4-kinase alpha (Homo sapiens) (UniProt P42356)
[25] = molecular target: Serine/threonine-protein kinase pim-1 (Homo sapiens) (UniProt P11309)
[26] = molecular target: Serine/threonine-protein phosphatase 2A 65 kDa regulatory subunit A alpha isoform (Homo sapiens) (UniProt P30153)
[27] = molecular target: 5'-AMP-activated protein kinase subunit beta-1 (Homo sapiens) (UniProt Q9Y478)
[28] = molecular target: 5'-AMP-activated protein kinase subunit gamma-1 (Homo sapiens) (UniProt P54619)
[29] = molecular target: Protein arginine N-methyltransferase 5 (Homo sapiens) (UniProt O14744)
[30] = molecular target: Pre-mRNA-processing factor 6 (Homo sapiens) (UniProt O94906)
[31] = molecular target: Proteasome subunit alpha type-4 (Homo sapiens) (UniProt P25789)
[32] = molecular target: 26S proteasome non-ATPase regulatory subunit 1 (Homo sapiens) (UniProt Q99460)
[33] = molecular target: Proto-oncogene tyrosine-protein kinase receptor Ret (Homo sapiens) (UniProt P07949)
[34] = molecular target: Mitochondrial Rho GTPase 2 (Homo sapiens) (UniProt Q8IXI1)
[35] = molecular target: Small ribosomal subunit protein eS17 (Homo sapiens) (UniProt P08708)
[36] = molecular target: Protein SDA1 homolog (Homo sapiens) (UniProt Q9NVU7)
Septin-9 (Homo sapiens) = Septin-9 (Homo sapiens) (UniProt Q9UHD8)
[37] = molecular target: Structural maintenance of chromosomes protein 3 (Homo sapiens) (UniProt Q9UQE7)
[38] = molecular target: Serine/threonine-protein kinase 4 (Homo sapiens) (UniProt Q13043)
[39] = molecular target: Transformer-2 protein homolog beta (Homo sapiens) (UniProt P62995)
[40] = molecular target: Gamma-tubulin complex component 3 (Homo sapiens) (UniProt Q96CW5)
[41] = molecular target: Tryptophan--tRNA ligase, cytoplasmic (Homo sapiens) (UniProt P23381)
[42] = molecular target: 14-3-3 protein eta (Homo sapiens) (UniProt Q04917)
Further: assay method not described here.

Phosphorylase b kinase gamma catalytic chain, liver/testis isoform (Homo sapiens), sequence (P15735 whole entry, canonical isoform): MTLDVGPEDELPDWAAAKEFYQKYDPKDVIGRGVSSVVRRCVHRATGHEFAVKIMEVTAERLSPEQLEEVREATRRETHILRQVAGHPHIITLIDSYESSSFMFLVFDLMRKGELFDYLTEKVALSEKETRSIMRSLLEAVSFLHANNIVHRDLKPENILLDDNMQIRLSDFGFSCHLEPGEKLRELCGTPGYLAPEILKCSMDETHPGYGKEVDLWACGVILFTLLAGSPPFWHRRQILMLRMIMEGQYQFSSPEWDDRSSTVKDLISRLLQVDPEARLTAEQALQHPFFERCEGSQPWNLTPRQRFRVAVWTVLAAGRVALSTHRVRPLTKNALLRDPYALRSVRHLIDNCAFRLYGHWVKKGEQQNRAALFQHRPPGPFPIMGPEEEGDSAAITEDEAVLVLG
Phosphatidylinositol 4-kinase alpha (Homo sapiens), sequence (P42356 whole entry, looked up): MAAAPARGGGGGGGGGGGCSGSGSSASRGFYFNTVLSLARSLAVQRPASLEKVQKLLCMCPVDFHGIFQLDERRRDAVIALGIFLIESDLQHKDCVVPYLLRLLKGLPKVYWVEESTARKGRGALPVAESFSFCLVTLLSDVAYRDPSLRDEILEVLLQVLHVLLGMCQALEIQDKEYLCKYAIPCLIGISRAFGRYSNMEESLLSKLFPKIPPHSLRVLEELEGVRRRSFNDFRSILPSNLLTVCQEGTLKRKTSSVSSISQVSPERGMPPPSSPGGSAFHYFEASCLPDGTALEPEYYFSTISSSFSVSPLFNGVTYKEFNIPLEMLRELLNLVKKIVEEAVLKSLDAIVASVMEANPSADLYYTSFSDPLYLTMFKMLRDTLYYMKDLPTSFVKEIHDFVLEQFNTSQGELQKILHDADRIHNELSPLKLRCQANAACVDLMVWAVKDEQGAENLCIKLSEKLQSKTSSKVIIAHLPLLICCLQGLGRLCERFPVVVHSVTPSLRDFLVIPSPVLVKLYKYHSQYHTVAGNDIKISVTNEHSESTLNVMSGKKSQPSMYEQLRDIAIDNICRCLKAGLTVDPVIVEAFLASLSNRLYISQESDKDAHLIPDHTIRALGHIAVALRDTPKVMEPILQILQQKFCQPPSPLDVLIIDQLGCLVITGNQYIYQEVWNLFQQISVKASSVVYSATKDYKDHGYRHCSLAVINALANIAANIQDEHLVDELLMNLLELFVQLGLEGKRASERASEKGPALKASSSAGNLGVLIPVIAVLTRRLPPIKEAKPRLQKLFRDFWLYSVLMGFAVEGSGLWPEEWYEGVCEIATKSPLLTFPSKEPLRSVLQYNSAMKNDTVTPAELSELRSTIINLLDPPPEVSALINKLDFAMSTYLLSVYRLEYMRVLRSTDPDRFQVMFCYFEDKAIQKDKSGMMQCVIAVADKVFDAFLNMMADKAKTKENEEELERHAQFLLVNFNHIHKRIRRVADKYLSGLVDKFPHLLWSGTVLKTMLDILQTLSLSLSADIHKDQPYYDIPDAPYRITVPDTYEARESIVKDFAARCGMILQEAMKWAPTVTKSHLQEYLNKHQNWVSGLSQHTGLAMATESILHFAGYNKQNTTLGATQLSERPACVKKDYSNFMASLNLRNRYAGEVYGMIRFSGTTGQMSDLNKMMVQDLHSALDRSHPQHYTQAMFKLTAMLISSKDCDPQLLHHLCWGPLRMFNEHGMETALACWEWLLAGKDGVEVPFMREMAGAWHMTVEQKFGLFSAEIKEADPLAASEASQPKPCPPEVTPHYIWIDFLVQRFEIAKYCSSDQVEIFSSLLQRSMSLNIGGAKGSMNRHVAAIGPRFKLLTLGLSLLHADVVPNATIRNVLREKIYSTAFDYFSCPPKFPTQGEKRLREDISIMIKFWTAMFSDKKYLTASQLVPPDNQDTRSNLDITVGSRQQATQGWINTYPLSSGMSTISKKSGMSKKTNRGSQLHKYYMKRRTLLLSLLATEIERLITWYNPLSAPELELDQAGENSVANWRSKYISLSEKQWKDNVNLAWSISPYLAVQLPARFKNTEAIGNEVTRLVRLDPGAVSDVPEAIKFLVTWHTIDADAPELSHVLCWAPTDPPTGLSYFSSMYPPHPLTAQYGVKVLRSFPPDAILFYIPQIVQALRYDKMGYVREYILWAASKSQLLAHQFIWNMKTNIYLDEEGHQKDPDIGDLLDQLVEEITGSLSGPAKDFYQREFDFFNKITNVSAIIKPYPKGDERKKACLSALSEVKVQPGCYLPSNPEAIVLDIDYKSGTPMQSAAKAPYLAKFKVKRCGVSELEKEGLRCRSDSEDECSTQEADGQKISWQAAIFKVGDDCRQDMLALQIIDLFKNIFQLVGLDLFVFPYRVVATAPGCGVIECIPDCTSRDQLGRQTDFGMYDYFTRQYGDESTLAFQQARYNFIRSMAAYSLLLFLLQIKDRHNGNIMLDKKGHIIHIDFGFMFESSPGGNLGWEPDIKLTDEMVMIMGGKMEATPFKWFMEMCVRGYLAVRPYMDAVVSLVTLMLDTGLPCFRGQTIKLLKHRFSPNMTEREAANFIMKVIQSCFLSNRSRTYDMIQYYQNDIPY
Heterogeneous nuclear ribonucleoprotein H (Homo sapiens), sequence (P31943 whole entry): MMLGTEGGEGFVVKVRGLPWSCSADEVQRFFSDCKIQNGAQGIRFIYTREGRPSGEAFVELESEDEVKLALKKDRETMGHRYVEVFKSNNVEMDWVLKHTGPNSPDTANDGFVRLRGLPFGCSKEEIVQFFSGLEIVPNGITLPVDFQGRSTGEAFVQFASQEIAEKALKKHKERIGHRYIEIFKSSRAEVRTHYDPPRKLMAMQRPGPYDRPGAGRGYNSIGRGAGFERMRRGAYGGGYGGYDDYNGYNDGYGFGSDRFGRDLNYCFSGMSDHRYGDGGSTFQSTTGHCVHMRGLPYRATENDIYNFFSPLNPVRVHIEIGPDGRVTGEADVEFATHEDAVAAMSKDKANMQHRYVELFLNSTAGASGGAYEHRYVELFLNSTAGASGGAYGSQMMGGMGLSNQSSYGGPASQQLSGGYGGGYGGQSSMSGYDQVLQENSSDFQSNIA
Ceroid-lipofuscinosis neuronal protein 6 (Homo sapiens), sequence (Q9NWW5 whole entry): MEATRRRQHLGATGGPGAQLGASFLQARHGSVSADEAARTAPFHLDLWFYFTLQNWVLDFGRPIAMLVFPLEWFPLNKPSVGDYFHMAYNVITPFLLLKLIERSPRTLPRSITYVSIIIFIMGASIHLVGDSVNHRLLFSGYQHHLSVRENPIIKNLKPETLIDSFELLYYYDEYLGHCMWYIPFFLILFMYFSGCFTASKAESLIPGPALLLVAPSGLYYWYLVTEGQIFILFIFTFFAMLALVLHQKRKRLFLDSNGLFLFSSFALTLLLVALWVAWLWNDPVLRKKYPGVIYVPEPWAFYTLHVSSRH
5-azacytidine-induced protein 2 (Homo sapiens), sequence (Q9H6S1 whole entry): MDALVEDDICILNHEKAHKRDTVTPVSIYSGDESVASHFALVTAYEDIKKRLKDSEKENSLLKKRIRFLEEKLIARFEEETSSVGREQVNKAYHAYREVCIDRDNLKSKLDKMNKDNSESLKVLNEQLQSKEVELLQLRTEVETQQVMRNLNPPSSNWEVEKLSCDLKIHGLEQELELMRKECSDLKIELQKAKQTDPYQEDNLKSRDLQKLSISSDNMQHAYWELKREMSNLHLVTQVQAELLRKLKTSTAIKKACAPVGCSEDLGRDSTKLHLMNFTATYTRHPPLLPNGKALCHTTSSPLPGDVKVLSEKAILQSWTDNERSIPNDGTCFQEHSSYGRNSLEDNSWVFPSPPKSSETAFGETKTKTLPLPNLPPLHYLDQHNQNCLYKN
Leucine-rich repeat flightless-interacting protein 1 (Homo sapiens), sequence (Q32MZ4 whole entry): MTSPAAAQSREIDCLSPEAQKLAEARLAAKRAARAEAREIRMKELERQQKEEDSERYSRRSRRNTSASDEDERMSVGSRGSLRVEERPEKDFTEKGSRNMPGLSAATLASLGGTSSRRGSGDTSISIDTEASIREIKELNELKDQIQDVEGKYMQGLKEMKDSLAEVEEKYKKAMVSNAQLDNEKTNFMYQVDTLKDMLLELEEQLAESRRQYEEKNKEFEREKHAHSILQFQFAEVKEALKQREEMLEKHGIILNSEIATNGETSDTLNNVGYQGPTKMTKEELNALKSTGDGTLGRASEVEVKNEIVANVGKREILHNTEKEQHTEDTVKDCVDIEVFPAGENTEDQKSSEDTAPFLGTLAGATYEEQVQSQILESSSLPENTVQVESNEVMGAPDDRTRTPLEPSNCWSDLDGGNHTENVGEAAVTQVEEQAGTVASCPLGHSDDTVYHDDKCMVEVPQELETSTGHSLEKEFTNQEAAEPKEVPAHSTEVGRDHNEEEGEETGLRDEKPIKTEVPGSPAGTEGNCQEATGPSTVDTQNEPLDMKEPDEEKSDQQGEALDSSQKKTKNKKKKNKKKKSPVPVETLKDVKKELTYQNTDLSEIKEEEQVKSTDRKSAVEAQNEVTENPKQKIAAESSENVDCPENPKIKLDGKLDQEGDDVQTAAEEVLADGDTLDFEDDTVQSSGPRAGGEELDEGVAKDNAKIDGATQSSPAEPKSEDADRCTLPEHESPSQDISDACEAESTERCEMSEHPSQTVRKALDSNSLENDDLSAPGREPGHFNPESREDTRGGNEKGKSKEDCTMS
Transformer-2 protein homolog beta (Homo sapiens), sequence (P62995 whole entry): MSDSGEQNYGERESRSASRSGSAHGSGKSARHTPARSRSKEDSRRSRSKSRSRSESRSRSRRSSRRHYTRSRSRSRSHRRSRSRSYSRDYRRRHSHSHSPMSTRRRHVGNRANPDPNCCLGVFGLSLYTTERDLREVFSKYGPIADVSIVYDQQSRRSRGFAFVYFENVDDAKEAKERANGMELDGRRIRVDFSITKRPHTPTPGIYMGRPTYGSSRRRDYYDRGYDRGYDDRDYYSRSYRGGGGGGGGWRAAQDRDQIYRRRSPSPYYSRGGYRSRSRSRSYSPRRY
dCTP pyrophosphatase 1 (Homo sapiens), sequence (Q9H773 whole entry, the tested form may be a part): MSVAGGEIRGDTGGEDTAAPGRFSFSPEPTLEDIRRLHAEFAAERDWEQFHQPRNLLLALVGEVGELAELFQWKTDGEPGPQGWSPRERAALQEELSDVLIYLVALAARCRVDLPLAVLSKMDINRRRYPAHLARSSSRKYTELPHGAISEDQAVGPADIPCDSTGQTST

## Cc1ccc(C(=O)Nc2cccc(C(F)(F)F)c2)cc1Nc1nc(-c2cccnc2)nc2c1cnn2C
Ephrin type-A receptor 7
  ED50: 15.8 µM
[1]
  ED50: 3.26 µM
[2]
  ED50: 0.0383 µM
[3]
  ED50: 3.13 µM
[4]
  ED50: 12.5 µM
Homo sapiens
  ED50: 3.03 µM
[5]
  ED50: 5.18 µM
[6]
  ED50: 0.542 µM
[7]
  ED50: 3.14 µM
[8]
  ED50: 9.56 µM
[9]
  ED50: 0.141 µM
[10]
  ED50: 0.0888 µM
[11]
  ED50: 22 µM
[12]
  ED50: 5.86 µM
[13]
  ED50: 1.36 µM
[14]
  ED50: 3.47 µM
[15]
  ED50: 0.0433 µM
[16]
  ED50: 0.112 µM
[17]
  ED50: 3.51 µM
[18]
  ED50: 4.09 µM
[19]
  ED50: 6.35 µM
Malectin (Homo sapiens)
  ED50: 95.1 µM
[20]
  ED50: 1.17 µM
[21]
  ED50: 0.398 µM
[22]
  ED50: 7.38 µM
[23]
  ED50: 0.144 µM
[24]
  ED50: 18.6 µM
[25]
  ED50: 0.0583 µM
[26]
  ED50: 2 µM
[27]
  ED50: 3.25 µM
[28]
  ED50: 3.12 µM
[29]
  ED50: 18.2 µM
[30]
  ED50: 151 µM
[31]
  ED50: 0.151 µM
[32]
  ED50: 0.0138 µM
[33]
  ED50: 5.11 µM
[34]
  ED50: 1.14 µM
[35]
  ED50: 21.8 µM
[36]
  ED50: 0.065 µM
Septin-9 (Homo sapiens)
  ED50: 8.65 µM
[37]
  ED50: 0.0434 µM
[38]
  ED50: 2.73 µM
[39]
  ED50: 0.0121 µM
[40]
  ED50: 10.2 µM
[41]
  ED50: 0.0163 µM
[42]
  ED50: 0.0217 µM

## Cc1ccc(C(=O)Nc2cccc(C(F)(F)F)c2)cc1Nc1nc(-c2cccnc2)nc2nn(C)cc12
Ephrin type-A receptor 7
  ED50: 1.49 µM
[1]
  ED50: 12.6 µM
[2]
  ED50: 6.47 µM
[3]
  ED50: 13.5 µM
[4]
  ED50: 1910 µM
Homo sapiens
  ED50: 0.00933 µM
[5]
  ED50: 0.0305 µM
[6]
  ED50: 0.387 µM
[7]
  ED50: 2.45 µM
[8]
  ED50: 0.308 µM
[9]
  ED50: 155 µM
[10]
  ED50: 0.144 µM
[11]
  ED50: 0.0555 µM
[12]
  ED50: 13.2 µM
[13]
  ED50: 0.85 µM
[14]
  ED50: 0.0559 µM
[15]
  ED50: 0.0292 µM
[16]
  ED50: 3.28 µM
[17]
  ED50: 0.228 µM
[18]
  ED50: 5.74 µM
[19]
  ED50: 36.4 µM
Malectin (Homo sapiens)
  ED50: 7.05 µM
[20]
  ED50: 0.0999 µM
[21]
  ED50: 0.429 µM
[22]
  ED50: 0.0686 µM
[23]
  ED50: 0.0181 µM
[24]
  ED50: 50.1 µM
[25]
  ED50: 0.0901 µM
[26]
  ED50: 203 µM
[27]
  ED50: 5.82 µM
[28]
  ED50: 0.0292 µM
[29]
  ED50: 3 µM
[30]
  ED50: 2.11 µM
[31]
  ED50: 13 µM
[32]
  ED50: 4.32 µM
[33]
  ED50: 0.0063 µM
[34]
  ED50: 97 µM
[35]
  ED50: 1.76 µM
[36]
  ED50: 0.000949 µM
Septin-9 (Homo sapiens)
  ED50: 0.109 µM
[37]
  ED50: 0.431 µM
[38]
  ED50: 0.0498 µM
[39]
  ED50: 0.537 µM
[40]
  ED50: 0.00173 µM
[41]
  ED50: 29.9 µM
[42]
  ED50: 0.103 µM
